In paper PMC7601231 (Polymers, 2020):

Key:
[1] = Pharmacokinetic study in rats after injection; format: in vivo, Sprague–Dawley rats; details: 10 mg/kg, n = 12
Protocol: Blood samples (0.5 mL) were taken from the retinal vein of the rats using a capillary and at the following time points after injecting: 5, 10, 15, 30 min, 1, 2, 4, 6, 8, 10 and 12 h. The sample should be transferred to the heparin sodium tube for anticoagulation. The samples were centrifuged at 4000 rpm for 10 min. The resultant plasma was poured into 2-mL cryogenic plastic tubes and stored in a freezer (at […]) until assayed. A week later, the two groups of animals exchanged the drug and obtained plasma samples, which were stored in the −20-degree refrigerator for analysis. The sample was extracted in the following steps: the plasma ([…]) was mixed with […] of paclitaxel solution (4.0 mg/mL) as […], and 1.0 mL methyl tert-butyl ether in a 2-mL plastic centrifuge tube, centrifuged at 10,000 rpm for 5 min to precipitate the proteins and the supernatant layer (0.8 mL) was blown dry by N2 and is dissolved by 0.1 mL methanol, which was centrifuged at 10,000 rpm for 10 min. The supernatant layer ([…]) was analyzed by LC-MS (Waters, American).
The plasma concentration versus time curves of the two preparations were plotted. The pharmacokinetic parameters such as elimination rate (Ke) and elimination half-life (T1/2) were calculated by using DAS2.0 software. The maximum peak concentration (Cmax) and the corresponding sampling time (Tmax) were obtained from the curves directly. The areas under the plasma concentration–time curve from time zero to time t (AUC0–t) and from time zero to infinity (AUC0-∞) were calculated by the method of moments. Statistical comparisons were made by using a ANOVA test and p value smaller than 0.05 was considered statistically significant.

[2] = Biodistribution study in rats; format: in vivo; details: 10 mg/kg, 10, 60 and 360 min after administration
[3] = Phase-solubility studies of DTX in SBE-β-CD aqueous solution; format: physicochemical; details: 25 °C
Protocol: In this study, the stability constant was assessed by classic determination method using solubility diagrams that required calculations involving drug solubility. […] Then the resulting suspensions were shaken in a thermostatic air-bath shaker at 25 °C for 48 h until equilibrium was achieved. After that, the saturated supernatant fluid was centrifuged for 5 min under 5000 rpm, and then the top fluid was withdrawn and filtered through a 0.45-μm filter. The filtrate was diluted appropriately with deionized water and analyzed by HPLC as reported above.

[4] = Vascular stimulation test, ear vein injection; format: in vivo, New Zealand white rabbits; details: rabbit ear vein, 0.7 mg/kg, every day, three injections
Protocol: Preparations were administered every day for a total of three injections. At designed time points, rabbits were anesthetized and ear tissue was soaked with 10% formalin. Then the histopathologic examination was conducted.

- AUC(0-t) [1]: 881.4 ± 30.4 ng/mL ∗ h
- AUC(0-∞) [1]: 925.8 ± 35.2 ng/mL ∗ h
- Cmax ([1]; male, Sprague-Dawley, rat, plasma, other: injection): 1100 ± 98 ng/mL
- concentration of DTX in brain, fat and testis [2]: low
- increase of water solubility of DTX over its original values [3]: about 800 times
Structure (SMILES): CC(=O)O[C@@]12CO[C@@H]1C[C@H](O)[C@@]1(C)C(=O)[C@H](O)C3=C(C)[C@@H](OC(=O)[C@H](O)[C@@H](NC(=O)OC(C)(C)C)c4ccccc4)C[C@@](O)([C@@H](OC(=O)c4ccccc4)[C@H]21)C3(C)C [DTX, Docetaxel]
- vascular stimulation: reaction at the injection site (histopathology) [4]: serious vascular inflammation and surrounding tissue lesions
